This is an account of results in article doi:10.1101/706028v1 (biorxiv, 2019).

The target in one assay is Nluc-SMO (Mus musculus, UniProt P56726, D477G/E522K). In words: NanoBRET saturation binding, live cells. It is filed as cell-based.
For another assay, the target named is ΔCRD Nluc-SMO (Mus musculus, UniProt P56726, D477G/E522K). As to the kind of experiment: NanoBRET saturation binding, live cells. It is filed as cell-based. For orientation: Bioluminescence resonance energy transfer reports proximity on the nanometre scale.
Chain of ΔCRD Nluc-SMO (P56726 185-793 D477G/E522K): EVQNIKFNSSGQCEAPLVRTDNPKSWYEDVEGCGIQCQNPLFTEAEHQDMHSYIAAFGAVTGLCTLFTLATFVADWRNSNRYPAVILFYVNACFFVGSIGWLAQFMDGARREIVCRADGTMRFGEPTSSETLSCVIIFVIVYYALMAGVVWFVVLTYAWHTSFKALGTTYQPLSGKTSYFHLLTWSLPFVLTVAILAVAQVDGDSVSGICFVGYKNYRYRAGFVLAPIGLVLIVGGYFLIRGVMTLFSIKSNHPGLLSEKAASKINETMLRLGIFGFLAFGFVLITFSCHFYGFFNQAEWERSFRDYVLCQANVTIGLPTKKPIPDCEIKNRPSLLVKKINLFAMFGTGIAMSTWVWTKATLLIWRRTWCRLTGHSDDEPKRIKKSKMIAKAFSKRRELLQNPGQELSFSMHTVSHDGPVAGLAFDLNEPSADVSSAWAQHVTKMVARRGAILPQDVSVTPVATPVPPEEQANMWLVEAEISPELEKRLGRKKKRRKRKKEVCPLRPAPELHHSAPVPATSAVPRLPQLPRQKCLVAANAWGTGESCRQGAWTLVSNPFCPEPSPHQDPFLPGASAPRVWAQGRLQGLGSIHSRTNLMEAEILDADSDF

Chain of Nluc-SMO (P56726 33-793 D477G/E522K): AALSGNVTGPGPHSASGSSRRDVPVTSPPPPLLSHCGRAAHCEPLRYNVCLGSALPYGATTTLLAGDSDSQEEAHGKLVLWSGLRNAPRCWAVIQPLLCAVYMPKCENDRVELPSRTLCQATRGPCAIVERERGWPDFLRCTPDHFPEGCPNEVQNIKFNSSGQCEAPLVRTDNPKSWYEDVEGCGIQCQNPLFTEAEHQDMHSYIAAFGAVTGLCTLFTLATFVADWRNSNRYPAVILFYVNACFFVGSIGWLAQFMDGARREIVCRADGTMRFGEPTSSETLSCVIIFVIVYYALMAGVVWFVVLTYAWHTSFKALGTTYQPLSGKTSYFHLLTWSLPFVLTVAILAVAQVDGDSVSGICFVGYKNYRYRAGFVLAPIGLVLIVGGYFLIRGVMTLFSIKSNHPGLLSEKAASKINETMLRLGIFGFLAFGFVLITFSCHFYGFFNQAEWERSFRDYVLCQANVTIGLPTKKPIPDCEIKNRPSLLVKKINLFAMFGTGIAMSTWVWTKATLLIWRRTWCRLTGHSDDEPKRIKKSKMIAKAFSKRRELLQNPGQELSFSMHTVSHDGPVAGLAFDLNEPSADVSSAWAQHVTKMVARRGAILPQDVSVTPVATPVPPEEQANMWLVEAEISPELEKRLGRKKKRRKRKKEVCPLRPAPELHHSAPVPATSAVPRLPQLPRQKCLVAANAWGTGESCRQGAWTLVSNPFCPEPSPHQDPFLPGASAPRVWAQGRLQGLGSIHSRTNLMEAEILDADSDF

As usually defined, the Kd is the equilibrium constant for the complex coming apart. High values mean lower affinity, low ones higher affinity. With `CC1=CC(C)=[N+]2C1=Cc1ccc(CCC(=O)NCCCCCC(=O)NCCN3C[C@@H](C)C[C@H]4O[C@]5(CC[C@@H]6C(=C5C)C[C@H]5[C@H]6CC=C6C[C@@H](O)CC[C@@]65C)[C@H](C)[C@@H]43)n1[B-]2(F)F` [BODIPY-cyclopamine], the Kd at Nluc-SMO was found to be 666 ± 122 nM; at ΔCRD Nluc-SMO, 450 ± 38.7 nM.
